Values after ≈ are worked out from the molar mass of the structure shown.
What was measured:
Aspergillus flavus = experiment: Antifungal activity against Aspergillus flavus after 7 days at 27 degC by liquid dilution method; format: functional
Bacillus subtilis = experiment: Antibacterial activity against Bacillus subtilis ATCC 6633 after 24 to 48 hrs at 37 degC by liquid dilution method; format: functional
Proteus vulgaris = experiment: Antibacterial activity against Proteus vulgaris […] after 24 to 48 hrs at 37 degC by liquid dilution method; format: functional
Paecilomyces = experiment: Antifungal activity against Paecilomyces after 7 days at 27 degC by liquid dilution method; format: functional
Pseudomonas aeruginosa = experiment: Antibacterial activity against Pseudomonas aeruginosa ATCC 27853 after 24 to 48 hrs at 37 degC by liquid dilution method; format: functional
Klebsiella pneumoniae = experiment: Antibacterial activity against Klebsiella pneumoniae ATCC 13883 after 24 to 48 hrs at 37 degC by liquid dilution method; format: functional
[1] = tested on: Mycolicibacterium smegmatis; experiment: Antibacterial activity against Mycobacterium smegmatis ATCC 607 after 24 to 48 hrs at 37 degC by liquid dilution method; format: functional
Candida albicans = experiment: Antifungal activity against Candida albicans CBS 562 after 24 to 48 hrs at 37 degC by liquid dilution method; format: functional
Streptococcus pyogenes = experiment: Antibacterial activity against Streptococcus pyogenes ATCC 19651 after 24 to 48 hrs at 37 degC by liquid dilution method; format: functional
Epidermophyton floccosum = experiment: Antifungal activity against Epidermophyton floccosum after 7 days at 27 degC by liquid dilution method; format: functional
Salmonella typhimurium = experiment: Antibacterial activity against Salmonella Typhimurium ATCC 14028 after 24 to 48 hrs at 37 degC by liquid dilution method; format: functional, Salmonella enterica subsp. enterica serovar Typhimurium; settings: Salmonella enterica
Serratia marcescens = experiment: Antibacterial activity against Serratia marcescens ATCC 8100 after 24 to 48 hrs at 37 degC by liquid dilution method; format: functional
Enterobacter cloacae = experiment: Antibacterial activity against Enterobacter cloacae ATCC 23355 after 24 to 48 hrs at 37 degC by liquid dilution method; format: functional
Escherichia coli = experiment: Antibacterial activity against Escherichia coli ATCC 25922 after 24 to 48 hrs at 37 degC by liquid dilution method; format: functional
Shigella dysenteriae = experiment: Antibacterial activity against Shigella dysenteriae after 24 to 48 hrs at 37 degC by liquid dilution method; format: functional
Microsporum canis = experiment: Antifungal activity against Microsporum canis after 7 days at 27 degC by liquid dilution method; format: functional
Staphylococcus aureus = experiment: Antibacterial activity against Staphylococcus aureus […] after 24 to 48 hrs at 37 degC by liquid dilution method; format: functional
Ralstonia solanacearum = experiment: Antibacterial activity against Pseudomonas solanacearum after 24 to 48 hrs at 37 degC by liquid dilution method; format: functional

## COc1c(-c2ccc(O)c(O)c2)oc2cc(O)cc(O)c2c1=O [3-O-METHYLQUERCETIN]
Aspergillus flavus; 168 h
  MIC: 100 µg/mL (≈ 316 µM)
Bacillus subtilis
  MIC: 50 µg/mL (≈ 158 µM)
Proteus vulgaris
  MIC: 100 µg/mL (≈ 316 µM)
Paecilomyces; 168 h
  MIC: 100 µg/mL (≈ 316 µM)
Pseudomonas aeruginosa
  MIC: 100 µg/mL (≈ 316 µM)
Klebsiella pneumoniae
  MIC: 100 µg/mL (≈ 316 µM)
[1]
  MIC: 100 µg/mL (≈ 316 µM)
Candida albicans
  MIC: 12.5 µg/mL (≈ 39.5 µM)
Streptococcus pyogenes
  MIC: 100 µg/mL (≈ 316 µM)
Epidermophyton floccosum; 168 h
  MIC: 100 µg/mL (≈ 316 µM)
Salmonella typhimurium
  MIC: 50 µg/mL (≈ 158 µM)
Serratia marcescens
  MIC: 100 µg/mL (≈ 316 µM)
Enterobacter cloacae
  MIC: 100 µg/mL (≈ 316 µM)
Escherichia coli
  MIC: 100 µg/mL (≈ 316 µM)
Shigella dysenteriae
  MIC: 100 µg/mL (≈ 316 µM)
Microsporum canis; 168 h
  MIC: 100 µg/mL (≈ 316 µM)
Staphylococcus aureus
  MIC: 6.25 µg/mL (≈ 19.8 µM)
Ralstonia solanacearum
  MIC: 100 µg/mL (≈ 316 µM)

## CN(C)[C@@H]1C(O)=C(C(N)=O)C(=O)[C@@]2(O)C(O)=C3C(=O)c4c(O)cccc4[C@@](C)(O)[C@H]3C[C@@H]12.Cl [TETRACYCLINE HYDROCHLORIDE]
Bacillus subtilis
  MIC: 3.12 µg/mL
Proteus vulgaris
  MIC: 25 µg/mL
Pseudomonas aeruginosa
  MIC: 100 µg/mL
Klebsiella pneumoniae
  MIC: 12.5 µg/mL
[1]
  MIC: 100 µg/mL
Streptococcus pyogenes
  MIC: 6.25 µg/mL
Salmonella typhimurium
  MIC: 12.5 µg/mL
Serratia marcescens
  MIC: 25 µg/mL
Enterobacter cloacae
  MIC: 12.5 µg/mL
Escherichia coli
  MIC: 6.25 µg/mL
Shigella dysenteriae
  MIC: 0.78 µg/mL
Staphylococcus aureus
  MIC: 100 µg/mL
Ralstonia solanacearum
  MIC: 100 µg/mL

## NYSTATIN
Aspergillus flavus
  MIC: 12.5 µg/mL
Paecilomyces
  MIC: 50 µg/mL
Candida albicans
  MIC: 0.78 µg/mL
Epidermophyton floccosum
  MIC: 100 µg/mL
Microsporum canis
  MIC: 50 µg/mL
